# According to patent US8604048B2, “Pyridocarbazole type compounds and applications thereof” (Centre National de la Recherche Scientifique, priority 2009, dated 2013):
# Columns and labels:
# recombinant human LIMK1 = target: T1, recombinant human LIMK1 (Homo sapiens, UniProt P53667); assay: Radiometric LIMK1 kinase assay; type: biochemical; conditions: Lineweaver-Burk plots
# T1 construct: 6His (N); purchased Millipore 14-656
# Protocol: Compounds were tested in a radiometric LIMK1 assay performed in a final volume of 25 μl containing 3 μl of compound or equivalent amount of DMSO as control, 2 μl (1 ng) of N-terminal 6His-tagged recombinant human LIMK1 (Millipore #14-656, in 20 mM MOPS pH=7.0, 1 mM EDTA, 0.01% NP-40, 5% glycerol, 0.1% β-mercaptoethanol, 1 mg·ml^−1 Bovine Serum Albumin) and a mixture containing […] pH=7.0, 200 μM EDTA, 70 μM of recombinant GST-cofilin 1, 25 mM Mg(OAc)2, and 360 μM [γ-^32P]-ATP. Assays were performed at 30° C. for 10 minutes before termination by the addition of 5 μl of 3% orthophosphoric acid. 25 μL aliquots were then spotted onto P80 filter square (4 cm^2). Filters were rinsed three times for 5 minutes by 0.5% orthophosphoric acid at 4° C. and transferred to scintillation vial. Following addition of scintillation cocktail (Ultima Gold, Perkin-Elmer), ^32P incorporation was measured using a scintillation counter.
# FIG. 10 illustrates the inhibition of LIMK1 by Compound 1 (H06). Radiometric LIMK1 kinase assay was performed as described in Example 2; the following conditions were tested: without LIMK1 (‘−LIMK1’), with LIMK1 (1 ng) in presence of 5 μM H06 (‘5 μM H06’), 25 μM H06 (‘25 μM H06’) or with equivalent amount of DMSO (‘Ctl’).
# Error bars represent standard error mean. […]
# MCF-7 cells = assay: Cell growth test (MTT), MCF-7; type: cell-based; conditions: Homo sapiens, MCF7; MCF-7, MTT test after 48 h; read-out: IC50 (concentration necessary to inhibit 50% of cell growth)
# Protocol: (§1) The cell growth tests are carried out in transparent 96-well microplates (Greiner) after having seeded 100 μl/well of a cell solution having 2·10^5 cells/ml to 5·10^5 cells/ml (depending on the cell lines). After incubating for 24 h at 37° C. with 5% CO2, the culture medium is removed and replaced with solutions of the molecule to be tested at various concentrations. The cells are incubated with these molecules for an additional 48 h at 37° C. with 5% CO2. After elimination of the medium, the cells are washed with blank RPMI (Gibco, Invitrogen) then incubated with 3-(4,5-dimethylthiazol-2-yl)-2,5-diphenyltetrazolium bromide or MTT (0.5 mg/ml final concentration) for 4 h at 37° C. with 5% CO2. MTT (Sigma Aldrich) makes it possible to estimate the viability of the cells by measuring the activity of a mitochondrial enzyme. Indeed, in living cells, mitochondrial dehydrogenases are capable of cleaving the tetrazolium ring, thus leading to the formation of formazan crystals that are insoluble in an aqueous medium. These crystals are dissolved with the addition of a solubilizing solution (isopropanol, 10% Triton X100, 0.1 N HCl). After stirring, the absorbance is measured at 570 nm using the FLUOstar OPTIMA microplate reader. […]
# (§2) The viability of the cells was evaluated using an MTT test after 48 h of exposure with various concentrations of molecules (from 100 μM to 0.001 μM). […]
# NCI-H460 cells = assay: Cell growth test (MTT), NCI-H460; type: cell-based; conditions: Homo sapiens; NCI-H460, MTT test after 48 h; read-out: IC50 (concentration necessary to inhibit 50% of cell growth)
# Protocol: as §1, §2
# T1 sequence (P53667 whole entry): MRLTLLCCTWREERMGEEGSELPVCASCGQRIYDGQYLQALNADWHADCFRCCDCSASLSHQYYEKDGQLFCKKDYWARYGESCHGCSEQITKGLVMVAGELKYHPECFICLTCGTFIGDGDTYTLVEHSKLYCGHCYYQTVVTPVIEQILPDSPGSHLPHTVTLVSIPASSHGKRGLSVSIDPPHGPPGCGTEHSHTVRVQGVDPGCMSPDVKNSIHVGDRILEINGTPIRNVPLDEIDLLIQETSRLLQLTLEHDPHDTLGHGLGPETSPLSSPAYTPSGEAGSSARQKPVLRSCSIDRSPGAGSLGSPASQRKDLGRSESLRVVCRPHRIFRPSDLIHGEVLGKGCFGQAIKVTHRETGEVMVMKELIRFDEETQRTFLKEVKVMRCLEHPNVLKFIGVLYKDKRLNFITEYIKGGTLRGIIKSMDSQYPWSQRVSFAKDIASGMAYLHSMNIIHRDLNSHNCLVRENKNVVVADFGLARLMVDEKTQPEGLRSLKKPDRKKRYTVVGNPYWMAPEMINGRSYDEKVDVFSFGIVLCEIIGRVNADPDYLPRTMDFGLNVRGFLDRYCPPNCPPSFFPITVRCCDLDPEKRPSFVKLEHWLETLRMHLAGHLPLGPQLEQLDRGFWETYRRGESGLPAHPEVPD
smiles,measurement,setting,value
"Cc1c2cc[nH]c(=O)c2c(C)c2c1[nH]c1ccc(OC(=O)c3ccccc3)cc12 [Compound 1, 9-benzoyloxy-5,11-dimethyl-2H,6H-pyrido[4,3-b]carbazol-1-one]",Inhibition mechanism on LIMK1,recombinant human LIMK1; 70 nM and 280 nM compound,ATP competitor
same,Ki,recombinant human LIMK1; ATP competition,~0.06 µM
same,IC50,MCF-7 cells,62.2 µM
same,IC50,NCI-H460 cells,6.65 µM
